Results on one compound are retold here after PMC6156440, “A Class 1 Histone Deacetylase as Major Regulator of Secondary Metabolite Production in Aspergillus nidulans” (Frontiers in Microbiology, 2018).

For this assay, the target named is T1, HosA (TAP-tagged HosA) (Aspergillus nidulans, UniProt Q5B6M4).
T1 construct: gene ANIA_03806; TAP-tagged HosA expressed in A. nidulans hosA deletion strain under xylPp; IgG-Sepharose pull-down under native conditions, eluted by TEV protease (CBP part of tag kept); enriched fraction, endogenous complex partners not examined
T1 sequence (Q5B6M4 1-482): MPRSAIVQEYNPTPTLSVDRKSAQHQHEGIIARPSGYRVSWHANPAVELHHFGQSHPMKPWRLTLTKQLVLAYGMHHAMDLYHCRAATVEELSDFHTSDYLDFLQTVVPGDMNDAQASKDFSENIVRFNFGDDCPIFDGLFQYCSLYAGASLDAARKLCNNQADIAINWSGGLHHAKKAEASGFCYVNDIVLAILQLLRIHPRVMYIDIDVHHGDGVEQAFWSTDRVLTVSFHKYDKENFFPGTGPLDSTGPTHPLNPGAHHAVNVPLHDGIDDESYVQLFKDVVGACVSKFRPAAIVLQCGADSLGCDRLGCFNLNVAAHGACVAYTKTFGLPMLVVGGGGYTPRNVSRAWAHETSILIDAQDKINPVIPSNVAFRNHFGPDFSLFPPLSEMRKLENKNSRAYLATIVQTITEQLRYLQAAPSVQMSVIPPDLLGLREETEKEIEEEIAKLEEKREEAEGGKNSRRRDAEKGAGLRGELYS
In words: fluorometric HDAC assay, labelled acetylated peptide substrate (EMD Millipore kit). The assay is classed as biochemical. The following applies: read-out: % inhibition at 100 nM.

Usually inhibition stands for the percentage by which the read-out fell short of the control. With `CC(/C=C/C(=O)NO)=C\[C@@H](C)C(=O)c1ccc(N(C)C)cc1` [TSA, trichostatin A], the inhibition at 0.1 µM is over 60%.
